Values after ≈ are worked out from the molar mass of the structure shown. Square brackets hold non-standard residues; d marks the D form. Peptide text beside a SMILES is read from it. * marks the point of attachment. X1 = N=C(N)NCCC[C@H](CN)C(=O)*; β3hK = NCCCC[C@H](N)CC(=O)O
Columns and labels:
[1] = Induction of programmed cell death in human MEC1 cells at 200 uM after 2 hrs by Annexin-V/propidium iodide staining based FACS analysis; assay type: functional
[2] = Metabolic stability in human serum at 10 mg/ml at 37 degC after 2 hrs by HPLC analysis; assay type: ADME
[3] = Aqueous solubility of compound in 50 mM sodium succinate buffer at 2 mM at pH 5 by 1D 1H NMR spectroscopic analysis; assay type: physicochemical
[4] = molecular target: Leukocyte surface antigen CD47 (Homo sapiens, UniProt Q08722); experiment: Binding affinity to CD47 receptor in human biotinylated MEC1 cell membranes by biolayer interferometry
Leukocyte surface antigen CD47, sequence (Q08722 whole entry): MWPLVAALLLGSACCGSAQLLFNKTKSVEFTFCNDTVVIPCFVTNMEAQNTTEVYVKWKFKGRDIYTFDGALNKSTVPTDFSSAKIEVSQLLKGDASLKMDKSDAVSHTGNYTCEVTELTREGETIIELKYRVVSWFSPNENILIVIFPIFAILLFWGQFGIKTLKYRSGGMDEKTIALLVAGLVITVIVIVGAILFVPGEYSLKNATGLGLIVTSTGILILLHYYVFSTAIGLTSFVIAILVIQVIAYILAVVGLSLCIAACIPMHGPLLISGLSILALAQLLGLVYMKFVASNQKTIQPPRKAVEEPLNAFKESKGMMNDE

[5] = Aqueous solubility of compound in 50 mM sodium succinate buffer at >1 mM at pH 5 by 1D 1H NMR spectroscopic analysis; assay type: physicochemical
[6] = Drug degradation in human serum at 10 mg/ml after 2 hrs by HPLC analysis; assay type: ADME

Compound | Activity [1] | other results
H-KRFYGGMWKK-OH | 2% | –
CSCC[C@H](NC(=O)[C@@H](NC(=O)[C@@H](NC(=O)[C@H](Cc1ccc(O)cc1)NC(=O)[C@H](Cc1ccccc1)NC(=O)[C@@H](CN)CCCNC(=N)N)C(C)C)C(C)C)C(=O)N[C@@H](Cc1c[nH]c2ccccc12)C(=O)N[C@@H](CCCCN)CC(=O)O (X1-FYVVMW[β3hK]-OH) | – | Stability [2]: Stable; solubility ([3]; buffer, pH 5, 2000 µM): Insoluble
CC(C)[C@H](NC(=O)[C@H](Cc1ccc(O)cc1)NC(=O)[C@H](Cc1ccccc1)NC(=O)[C@H](CCCNC(=N)N)NC(=O)[C@H](N)CCCCN)C(=O)N[C@H](C(=O)N[C@@H](C)C(=O)N[C@@H](Cc1c[nH]c2ccccc12)C(=O)N[C@@H](CCCCN)C(=O)N[C@H](CCCCN)C(=O)O)C(C)C (H-[dK]RFYVVAWK[dK]-OH) | 6% | –
CSCC[C@H](NC(=O)[C@@H](NC(=O)[C@@H](NC(=O)[C@H](Cc1ccc(O)cc1)NC(=O)[C@H](Cc1ccccc1)NC(=O)[C@@H](N)CCCNC(=N)N)C(C)C)C(C)C)C(=O)N[C@@H](Cc1c[nH]c2ccccc12)C(=O)N[C@@H](CCCCN)C(=O)O | 13% | solubility at 2000 µM ([3]; 50 mM sodium succinate buffer, pH 5): 30 µM (≈ 33.9 µg/mL)
CCCCC(NC(=O)[C@@H](NC(=O)[C@@H](NC(=O)[C@H](Cc1ccc(O)cc1)NC(=O)[C@H](Cc1ccccc1)NC(=O)[C@H](CCCNC(=N)N)NC(=O)[C@H](N)CCCCN)C(C)C)C(C)C)C(=O)N[C@@H](Cc1c[nH]c2ccccc12)C(=O)N[C@@H](CCCCN)C(=O)N[C@H](CCCCN)C(=O)O (stereo partly drawn) | 47% | Kd [4]: 18 µM
Ac-KRFYVVMWKK-NH2 | 30% | solubility [5]: Soluble; Stability [6]: Unstable
CSCC[C@H](NC(=O)[C@@H](NC(=O)[C@@H](NC(=O)[C@H](C)NC(=O)[C@H](Cc1ccccc1)NC(=O)[C@H](CCCNC(=N)N)NC(=O)[C@H](N)CCCCN)C(C)C)C(C)C)C(=O)N[C@@H](Cc1c[nH]c2ccccc12)C(=O)N[C@@H](CCCCN)C(=O)N[C@H](CCCCN)C(=O)O | 0% | –
CSCC[C@H](NC(=O)[C@@H](NC(=O)[C@@H](NC(=O)[C@H](Cc1ccc(O)cc1)NC(=O)[C@H](Cc1ccccc1)NC(=O)[C@H](CCCNC(=N)N)NC(=O)[C@H](N)CCCCN)C(C)C)C(C)C)C(=O)N[C@@H](C)C(=O)N[C@@H](CCCCN)C(=O)N[C@H](CCCCN)C(=O)O (H-[dK]RFYVVMAK[dK]-OH) | 35% | –

Source: ChEMBL document CHEMBL3853322, “Thrombospondin-1 Mimetic Agonist Peptides Induce Selective Death in Tumor Cells: Design, Synthesis, and Structure-Activity Relationship Studies” (J Med Chem, 2016)
